5 compounds from patent US20160338971A1, “NANO CO-ENCAPSULATION FOR THE PREVENTION AND TREATMENT OF VARIOUS DISORDERS” (priority 2015, published 2016) can be followed below.

The subject of the assay is Human Pancreatic cancer cells (MPanc). Briefly: Anti-cancer efficacy in athymic nude mice (subcutaneous pancreatic tumor implant). Conditions: 10 ug/implant in Matrigel near the tumor implant, tumors excised after 2 weeks, n=6 per group, Control 291 ± 25. It is filed as in vivo. The source says: Human Pancreatic cancer cells (MPanc) were implanted subcutaneously in nude mice at 1 million cells per site and after tumor growth to 150-200 mm3, animals were implanted with the various Nano composites near by the tumor implant.
The preceding data represents mean tumor weight±Standard Deviation (SD), n=6 per group, after 2 weeks of pancreatic cancer cell implant at 1 million per animals. Nano composites were implanted in a Matrigel near by the tumor implants
Consider `O=C1O[C@H]2[C@@H]3OC(=O)c4cc(O)c(O)c(O)c4-c4c(O)c(O)c5oc(=O)c6c(c(O)c(O)c7oc(=O)c4c5c76)-c4c(cc(O)c(O)c4O)C(=O)OC[C@H]3OC(O)[C@@H]2OC(=O)c2cc(O)c(O)c(O)c2-c2c1cc(O)c(O)c2O` (mixture of isomers) [Punicalagin], for which the “Mean Pancreatic Tumor Weight (mg) ± SD” value worked out at 146.44 ± 16.4 mg.
Take epigallocatechin-3-gallate [EGCG]: the “Mean Pancreatic Tumor Weight (mg) ± SD” value turned out to be 145.11 ± 17.8 mg.
As for `C[S+]([O-])CCCCN=C=S` (centres unmarked) [Sulforaphan], the “Mean Pancreatic Tumor Weight (mg) ± SD” value is 195.80 ± 21.2 mg.
`C=CCSSC=CC[S+]([O-])CC=C` (mixture of isomers) [Ajoene]: the “Mean Pancreatic Tumor Weight (mg) ± SD” value is reported as 188.45 ± 15.6 mg.
To `Oc1ccc(C=Cc2cc(O)cc(O)c2)cc1` [Resveratrol] belongs 198.44 ± 18.9 mg.
